Source: US12642862B2, “Anti-CD79B antibody-drug conjugate, and preparation method therefor and pharmaceutical use thereof” (TUOJIE BIOTECH (SHANGHAI) CO., LTD., priority 2020, dated 2026)
pEC50: −log10 of the molar value. Values joined by “and” are separate entries in the source; they are usually repeats but may differ in a detail not shown here. Equal entries are not always repeated. Where two headings read alike, the source gives them in different places.

Experiments:
[1] = test system: human diffuse large B-cell lymphoma WSU-DLCL2-induced nude mouse subcutaneous xenograft tumor; assay type: in vivo, nude mice (BALB/c-nu); settings: 3 mg/kg, IV
Protocol: This example was performed to further evaluate and compare the efficacy of ADC drugs on WSU-DLCL2-induced nude mouse subcutaneous xenograft tumor.
Experimental steps: each nude mouse was subcutaneously inoculated with 2×10^7 WSU-DLCL2 cells, and after the tumor volume reached 100-150 mm^3, the animals were grouped according to tumor volume (D0). The mice were administrated by intravenous injection (IV) at an administration volume of 10 mL/kg. The tumor volumes and body weights were measured twice a week and the results were recorded.
Unless otherwise indicated, comparison between tumor volumes of the two groups was made by two-tailed Student's t-test, with P<0.05 defined as statistically significant difference.

human CD79B = target: T1, human CD79B (Homo sapiens, UniProt P40259); assay: Biacore affinity assay of CD79B antibodies and ADCs; design: His; purchased Sino Biological 29750-H08H; settings: binding force to human CD79B protein
T1 sequence (P40259 29-159 limits assumed): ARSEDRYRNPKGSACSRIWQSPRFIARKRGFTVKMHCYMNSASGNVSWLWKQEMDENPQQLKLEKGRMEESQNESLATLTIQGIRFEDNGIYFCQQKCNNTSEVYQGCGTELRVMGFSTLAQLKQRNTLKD
Source text: Experimental instruments, materials and reagents: Biacore T200 (GE); biosensor chip CM5 (Cat. #BR-1005-30, GE); amino coupling kit (Cat. #BR-1000-50, GE); human antibody capture kit (Cat. #BR-1008-39, GE); human CD79B-His protein (Cat. #29750-H08H, Sino Biological); HBS-EP+10× buffer (Cat. #BR-1006-69, GE) diluted to 1× (pH 7.4) with D. I. Water.
Experimental procedures: human antibody capture antibodies were covalently coupled to a CM5 biochip according to the method described instructions of the human antibody capture kit for affinity capture of a certain amount of CD79B antibody.
Statistics and analysis of data: data were fitted by BIAevaluation version 4.1, GE software using a (1:1) Langmuir model to obtain affinity values.

[2] = test system: human follicular lymphoma DOHH-2-induced nude mouse subcutaneous xenograft tumor; assay type: in vivo, nude mice (BALB/c-nu); settings: 1 mg/kg, IV
Protocol: This example was performed to further evaluate and compare the efficacy of ADC drugs on DoHH2-induced nude mouse subcutaneous xenograft tumor.
2. Cells and mice: DOHH-2 cells were purchased from DSMZ, Germany.
Nude mice, BALB/c-nu, 4-5 weeks of age, female, were purchased from Shanghai Lingchang Biotechnology Co., Ltd, with production license number of SCXK (Shanghai) 2018-0003, and animal certification number of 20180003010222. Housing environment: SPF grade.
3. […] The mice were administrated by intravenous injection (IV) at an administration volume of 10 mL/kg.
At the end of the experiment, at the experiment endpoint, or when the mean tumor volume in the solvent group reached 1500 mm^3, the animals were sacrificed by CO2 anesthesia and dissected to give the tumors. The tumors were photographed.

[3] = test system: DOHH-2 cells highly expressing human CD79B protein; assay type: cell-based; settings: DoHH2 cells, 20 μg/mL ADC, 37° C.
Protocol: A cell endocytosis experiment was performed with DOHH-2 cells (DSMZ, ACC 47) highly expressing human CD79B protein to assess the endocytosis ability of ADCs.
The cells were collected by low temperature centrifugation at 4° C. for 5 min at 1000 rpm during the experiment. The cells were resuspended in 10-15 mL of FACS buffer pre-cooled on ice. The FACS buffer was composed of phosphate buffered saline (PBS), pH 7.4, with 2% fetal bovine serum (FBS). Throughout the experiment, FACS buffer was pre-cooled on ice. The cells were counted and centrifuged, and added to a 96-well plate at 300,000 cells/well. After centrifugation, the supernatant was discarded, and 12.5 μg/mL Fc blocking solution (BD, Cat No.: 564220) was added at 100 μL/well. Blocking was performed at room temperature for 10 min. Then, 20 μg/mL test ADC was added to the corresponding wells, and the plate was incubated at 4° C. for 1 h away from the light. The plate was washed twice with a pre-cooled PBS buffer to remove unbound ADCs. A complete cell culture medium (RPMI 1640 medium with 10% fetal bovine serum) was added, and the plate was incubated at 37° C. with 5% CO2 for 0 h and 4 h. […] The cells were resuspended in an FACS buffer at 200 μL/well and detected using a flow cytometer (BD FACS Calibur).

WSU-DLCL2 = assay type: cell-based, human; settings: WSU-DLCL2 (CD79B low-expression), 72 h, MTT
Protocol: (§1) This example was performed to evaluate the effect of different ADCs on the proliferation of DoHH2, WSU-DLCL2 and Raji cells cultured in vitro.
(§2) A certain number of cells in logarithmic growth phase were seeded into a 96-well culture plate, and drugs at different concentrations were added to the culture plate for reaction for 72 h. After the reaction was completed, an MTT working solution was added for reaction for 4 h, then blue-purple crystalline formazan was dissolved with a triplex solution.
(§3) From the inhibition rate at each concentration, the half maximal inhibitory concentration IC50 was calculated using PrismGraph 8.

[4] = test system: human diffuse large B-cell lymphoma WSU-DLCL2-induced nude mouse subcutaneous xenograft tumor; assay type: in vivo, nude mice (BALB/c-nu); settings: for Mean tumor volume (mm^3 ± SEM) D0 / Mean tumor volume (mm^3 ± SEM) D21 / Tumor growth inhibition (%) D21 / T/C (%) D21 / Partial regression: IV; for Mean tumor volume (mm^3 ± SEM) D0: baseline at grouping; for Mean tumor volume (mm^3 ± SEM) D21 / Tumor growth inhibition (%) D21 / T/C (%) D21 / Partial regression: single dose D0; for T/C (%) D21: control IgG1; for Partial regression: tumors (of 6) with volume on D21 less than on D0
Protocol: This example was performed to evaluate and compare the efficacy of ADC drugs on nude mouse subcutaneous xenograft tumor.
Cells and mice: human diffuse large B-cell lymphoma WSU-DLCL2 cells were purchased from American Type Culture Collection. WSU-DLCL2 cells were cultured in a 10 cm petri dish with an RPMI 1640 culture medium (Gibco) containing 10% fetal bovine serum, penicillin and streptomycin and incubated in an incubator at 37° C. with 5% CO2. Subculturing was performed 2-3 times a week, and cells were collected, counted and seeded when they were in exponential growth phase.
Nude mice, BALB/c-nu, 35 days of age, female, were purchased from Beijing Huafukang Biotechnology Co., Ltd, with production license number of SCXK (Beijing) 2019-0008, and animal certification number of 1103222011004014. Housing environment: SPF grade.
The experimental index is to study the effect of the drug on the tumor growth, and the specific index is T/C % or tumor growth inhibition TGI (%).
Tumor diameters were measured twice a week with a vernier caliper and tumor volume (V) was calculated according to the following formula: V=½×a×b^2, where a and b represent length and width, respectively.
T/C (%)=(T−T0)/(C−C0)×100, where T and C represent the tumor volume of animals at the end of the experiment in the treatment group and control group, respectively; T0 and C0 represent the tumor volume of animals at the beginning of the experiment in the treatment group and control group, respectively; where T is the tumor volume of the ADC administered and C is the tumor volume of IgG1 administered as a control group.
At the end of the experiment, at the experiment endpoint, or when the mean tumor volume in the solvent group reached 1500 mm^3, the animals were sacrificed by CO2 anesthesia and dissected to give the tumors. The tumors were photographed. Unless otherwise indicated, comparison between tumor volumes of the two groups was made by two-way ANOVA test, with P<0.05 defined as statistically significant difference.

DoHH2 = assay type: cell-based, human; settings: DoHH2 (CD79B high-expression), 72 h, MTT
Protocol: as §1, §2, §3

Raji = assay type: cell-based; settings: Raji (CD79B negative-expression), 72 h, MTT
Protocol: as §1, §2, §3

For “ADC-8: SN8 conjugated with MC-VC-PAB-MMAE; positive drug ADC-8 (namely Polivy) [reference compound]”, the “Mean tumor volume (mm^3) D0” value ([1]; D0, baseline at grouping) was 105.0 mm^3, the “% T/C D21” value ([1]; single dose D0, D21) was 90% and the “% Tumor growth inhibition D21” value ([1]; single dose D0, D21) was 10%. For the same substance, the “Mean tumor volume (mm^3) D21” value ([1]; single dose D0, D21) was 792.6 mm^3, the Partial regression ([1]; single dose D0, tumors of 6) was 0 and the pEC50 (human CD79B) was 8.22. The “Mean tumor volume (mm^3) D0” value ([2]; D0, baseline at grouping) was 117.1 mm^3, the “Mean tumor volume (mm^3) D20” value ([2]; single dose D0, D20) was 862.1 mm^3 and the “Tumor growth inhibition (%) D20” value ([2]; single dose D0, D20) was 41%. The “T/C (%) D20” value ([2]; single dose D0, D20, control IgG1) was 59%, the Partial regression ([2]; single dose D0, tumors of 6) was 0 and the “Endocytosis rate (4 h)” value [3] was 76%. For the same substance, the “IC50” value (WSU-DLCL2) was 0.1169 µg/mL, the “efficacy on WSU-DLCL2-induced nude mouse subcutaneous xenograft tumor (conclusion)” value ([4]; 3 mg/kg or 10 mg/kg, single intravenous injection) was “significant efficacy” and the “Mean tumor volume (mm^3 ± SEM) D0” value ([4]; 3 mg/kg) was 117.6 ± 3.0 mm^3. For the same substance, the “Mean tumor volume (mm^3 ± SEM) D21” value ([4]; 3 mg/kg) was 547.2 ± 38.1 mm^3, the “Tumor growth inhibition (%) D21” value ([4]; 3 mg/kg) was 39% and the “T/C (%) D21” value ([4]; 3 mg/kg) was 61%. The Partial regression ([4]; 3 mg/kg) was 0, the “Mean tumor volume (mm^3 ± SEM) D0” value ([4]; 10 mg/kg) was 115.0 ± 3.7 mm^3 and the “Mean tumor volume (mm^3 ± SEM) D21” value ([4]; 10 mg/kg) was 167.8 ± 50.3 mm^3. The “Tumor growth inhibition (%) D21” value ([4]; 10 mg/kg) was 93%, the “T/C (%) D21” value ([4]; 10 mg/kg) was 7% and the Partial regression ([4]; 10 mg/kg) was 4/6 and 4. For the same substance, the “IC50” value (DoHH2) was 0.0806 µg/mL and the “IC50” value (Raji) was >10 µg/mL.
